Source: article PMC9637222, “Autoinducer-2 and bile salts induce c-di-GMP synthesis to repress the T3SS via a T3SS chaperone” (Nature Communications, 2022)
“And” between values parts separate entries of the source, which are not always exact repeats. Equal values may be shown once. Read-outs that look alike come from different tables or passages of the source.

Tests used:
[1] = target: T1, SicA (Salmonella typhimurium, UniProt P69066); assay: ITC: nucleotide (c-di-GMP, c-di-AMP, cGMP) binding to SicA; parameters: species or system S. Typhimurium
T1 construct: His6 (N, cleaved yes); made in house; host or cells: E. coli BL21(DE3), pET-28a (pET28a-sicA)
T1 sequence (P69066 whole entry): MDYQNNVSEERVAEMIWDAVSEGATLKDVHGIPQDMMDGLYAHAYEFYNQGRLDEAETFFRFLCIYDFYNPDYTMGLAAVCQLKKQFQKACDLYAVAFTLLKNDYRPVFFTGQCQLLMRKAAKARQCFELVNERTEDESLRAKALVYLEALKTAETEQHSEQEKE

[2] = target: T2, SicA D28A (Salmonella typhimurium, UniProt P69066, D28A); assay type: binding, S. Typhimurium
T2 construct: His6 (N, cleaved yes); made in house; host or cells: E. coli BL21(DE3), pET-28a (pET28a-sicAD28A)
T2 sequence (P69066 whole entry D28A): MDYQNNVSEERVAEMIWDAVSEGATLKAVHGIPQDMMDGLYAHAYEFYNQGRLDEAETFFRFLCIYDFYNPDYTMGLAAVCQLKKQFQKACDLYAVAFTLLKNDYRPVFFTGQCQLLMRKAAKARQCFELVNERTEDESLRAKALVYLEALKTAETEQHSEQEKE

[3] = target: T3, SicA Q34A (Salmonella typhimurium, UniProt P69066, Q34A); assay type: binding, S. Typhimurium
T3 construct: His6 (N, cleaved yes); made in house; host or cells: E. coli BL21(DE3), pET-28a (pET28a-sicAQ34A)
T3 sequence (P69066 whole entry Q34A): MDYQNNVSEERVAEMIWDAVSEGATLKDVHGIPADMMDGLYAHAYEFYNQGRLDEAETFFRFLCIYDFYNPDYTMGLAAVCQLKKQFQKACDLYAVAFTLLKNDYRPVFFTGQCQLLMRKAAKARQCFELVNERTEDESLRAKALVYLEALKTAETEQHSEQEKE

[4] = target: T4, SicA D67A (Salmonella typhimurium, UniProt P69066, D67A); assay type: binding, S. Typhimurium
T4 construct: His6 (N, cleaved yes); made in house; host or cells: E. coli BL21(DE3), pET-28a (pET28a-sicAD67A)
T4 sequence (P69066 whole entry D67A): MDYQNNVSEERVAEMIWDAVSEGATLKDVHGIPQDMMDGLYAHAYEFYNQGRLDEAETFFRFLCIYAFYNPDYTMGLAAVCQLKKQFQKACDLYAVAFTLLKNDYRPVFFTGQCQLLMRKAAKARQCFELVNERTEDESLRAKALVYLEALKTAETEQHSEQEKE

[5] = target: T5, SicA N70A (Salmonella typhimurium, UniProt P69066, N70A); assay type: binding, S. Typhimurium
T5 construct: His6 (N, cleaved yes); made in house; host or cells: E. coli BL21(DE3), pET-28a (pET28a-sicAN70A)
T5 sequence (P69066 whole entry N70A): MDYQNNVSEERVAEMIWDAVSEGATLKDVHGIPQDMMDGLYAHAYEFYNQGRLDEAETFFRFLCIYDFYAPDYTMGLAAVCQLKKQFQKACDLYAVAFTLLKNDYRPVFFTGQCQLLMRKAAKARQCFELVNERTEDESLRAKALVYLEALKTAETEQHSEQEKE

[6] = target: T6, SycD (WP_010891209) (Yersinia enterocolitica, UniProt O87496); assay type: binding; settings: for Kd: ITC
T6 sequence (O87496 1-168): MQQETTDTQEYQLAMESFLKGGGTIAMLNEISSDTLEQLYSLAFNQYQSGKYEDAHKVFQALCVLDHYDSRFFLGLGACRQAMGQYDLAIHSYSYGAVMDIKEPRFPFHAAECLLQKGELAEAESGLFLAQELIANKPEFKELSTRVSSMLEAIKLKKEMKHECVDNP

[7] = target: T7, CesD (WP_000379288) (Escherichia coli O157:H7, UniProt Q8X6H6); assay type: binding, EHEC O157:H7; settings: for Kd: ITC
T7 sequence (Q8X6H6 1-163): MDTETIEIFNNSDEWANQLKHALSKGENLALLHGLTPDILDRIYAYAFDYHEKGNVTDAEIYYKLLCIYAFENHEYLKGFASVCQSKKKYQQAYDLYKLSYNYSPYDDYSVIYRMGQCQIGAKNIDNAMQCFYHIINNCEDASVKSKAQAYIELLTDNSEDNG

[8] = target: T8, BicA (WP_009896148) (Burkholderia thailandensis, UniProt Q2T712); assay type: binding
T8 sequence (Q2T712 1-171): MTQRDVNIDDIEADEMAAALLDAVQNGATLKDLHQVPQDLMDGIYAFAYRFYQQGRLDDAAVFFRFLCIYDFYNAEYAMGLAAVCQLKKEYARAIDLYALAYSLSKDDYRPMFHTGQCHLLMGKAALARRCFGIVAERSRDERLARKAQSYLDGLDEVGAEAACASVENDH

[9] = target: T9, VcrH (WP_005464462) (Vibrio parahaemolyticus, UniProt Q87P60); assay type: binding; settings: for Kd: ITC
T9 sequence (Q87P60 1-162): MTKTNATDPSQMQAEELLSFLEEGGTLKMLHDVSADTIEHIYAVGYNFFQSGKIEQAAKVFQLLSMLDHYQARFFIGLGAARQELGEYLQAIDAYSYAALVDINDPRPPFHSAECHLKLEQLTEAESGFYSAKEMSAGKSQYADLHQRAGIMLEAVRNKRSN

[10] = system: T10, T3SS ATPase InvC (STM2894); assay: ITC: c-di-GMP binding to T3SS ATPase InvC; settings: T3SS ATPase from S. Typhimurium
T10 construct: His6 (N, cleaved yes); made in house; host or cells: E. coli BL21(DE3) (pET28a-invC)
Protocol: (§1) Supplementary Fig. 25 Neither the T3SS ATPase InvC (STM2894) from S. Typhimurium nor the T3SS ATPase PA1697 from P. aeruginosa interacts with c-di-GMP
(§2) The binding affinity was evaluated by ITC analysis. ITC data and plots of injected heat for automatic injections of 100 μM c-di-GMP into the sample cell containing 10 μM InvC (a) or PA1697 (b) are shown inthe upper and lower plots, respectively. […]
(§3) the finalanalysis. Results shown are one representative of three experiments with similar results.

[11] = system: T3SS ATPase PA1697; assay: ITC: c-di-GMP binding to T3SS ATPase PA1697; settings: T3SS ATPase from P. aeruginosa
Protocol: as §1, §2, §3

[12] = system: SipB-His6 / SicA-HA; assay: Co-IP of SipB-His6 with SicA-HA in presence of c-di-GMP; settings: dose-dependent
[13] = target: T11, InvF (Salmonella typhimurium, UniProt P69343); assay: ITC: c-di-GMP binding to InvF; parameters: His6 (N, cleaved yes); made in house; host or cells: E. coli BL21(DE3), pET-28a (pET28a-invF); species or system S. Typhimurium
T11 sequence (P69343 1-216): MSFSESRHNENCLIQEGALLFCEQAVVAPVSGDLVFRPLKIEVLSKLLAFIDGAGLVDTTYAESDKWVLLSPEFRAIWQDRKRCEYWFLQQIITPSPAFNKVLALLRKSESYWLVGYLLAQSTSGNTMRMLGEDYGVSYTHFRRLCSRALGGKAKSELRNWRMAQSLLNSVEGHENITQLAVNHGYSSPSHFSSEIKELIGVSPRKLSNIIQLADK

[14] = individual experiments, source data Fig. 5a
[15] = range given for all 6 chaperones (PcrH, IpgC, SycD, CesD, BicA, VcrH), read-out: Kd

## Nc1nc2c(ncn2C2OC3COP(=O)(O)OC4C(COP(=O)(O)OC3C2O)OC(n2cnc3c(=O)[nH]c(N)nc32)C4O)c(=O)[nH]1 (stereo not shown) [c-di-GMP, Cyclic di-GMP]
[1]; c-di-GMP : SicA WT, mean ± s.d. of three independent experiments
  Kd: 0.21 ± 0.09 µM
[1]; [14]
  Kd: 0.32 µM and 0.1 µM
  n (complex stoichiometry): 1.14 and 1.11 and 1.21
[2]; ITC binding stoichiometry n, individual replicates, Supplementary Figure 17b
  n, c-di-GMP binding to SicAD28A: 1.08 and 1.02 and 0.98
[2]; binding to SicA D28A
  Kd: 21 µM and 26 µM and 20 µM
[3]; ITC binding stoichiometry n, individual replicates, Supplementary Figure 17c
  n, c-di-GMP binding to SicAQ34A: 1.05 and 1.09
[3]; binding to SicA Q34A
  Kd: 15 µM and 12 µM and 14 µM
[4]; ITC binding stoichiometry n, individual replicates, Supplementary Figure 17d
  n, c-di-GMP binding to SicAD67A: 0.99 and 1.02 and 0.94
[4]; binding to SicA D67A
  Kd: 33 µM and 34 µM and 32 µM
[5]; ITC binding stoichiometry n, individual replicates, Supplementary Figure 17e
  n, c-di-GMP binding to SicAN70A: 0.95 and 1.03
[5]; ITC, peer review file
  Increase in Kd, SicA N70A versus SicA: 140 fold
[5]; binding to SicA N70A
  Kd: 28 µM and 31 µM and 32 µM
[6]; ITC binding stoichiometry n, individual replicates, Supplementary Figure 22c
  n, c-di-GMP binding to SycD: 1.15 and 1.12
[6]; individual replicates, Supplementary Figure 22c, read-out: Kd, c-di-GMP binding to SycD
  Kd: 0.18 µM and 0.15 µM and 0.16 µM
[6]; [15]
  Kd: 0.15 to 0.22 µM
[7]; ITC binding stoichiometry n, individual replicates, Supplementary Figure 22d
  n, c-di-GMP binding to CesD: 1.03 and 1.09 and 1.15
[7]; individual replicates, Supplementary Figure 22d, read-out: Kd, c-di-GMP binding to CesD
  Kd: 0.17 µM and 0.18 µM and 0.19 µM
[7]; [15]
  Kd: 0.15 to 0.22 µM
[8]
  Kd: 0.15 to 0.22 µM
  n, c-di-GMP binding to BicA: 1.12 and 1.17 and 1.14
[8]; read-out: Kd, c-di-GMP binding to BicA
  Kd: 0.19 µM and 0.2 µM and 0.24 µM
[9]; ITC binding stoichiometry n, individual replicates, Supplementary Figure 22f
  n, c-di-GMP binding to VcrH: 1.12 and 1.10
[9]; individual replicates, Supplementary Figure 22f, read-out: Kd, c-di-GMP binding to VcrH
  Kd: 0.14 µM and 0.16 µM
[9]; [15]
  Kd: 0.15 to 0.22 µM
[10]
  Interaction with T3SS ATPase (in words): no interactions
[11]
  Interaction with T3SS ATPase (in words): no interactions
[12]
  Effect on co-IP of SipB-His6 with SicA-HA (in words): decreased
[13]
  Binding to InvF (in words): does not bind
